According to article doi:10.1101/2025.09.23.678079v1 (biorxiv, 2025):
In brackets after ≈: the same amount, converted by molar mass. One block for each compound: values may come before it.

How the values were obtained:
HPK1 = HPK1 (Homo sapiens, UniProt Q92918); assay: HTRF enzymatic assay; format: biochemical
in vitro [1] = details: dog, hepatocytes
in vitro [2] = details: human, Caco-2
hERG [3] = biological target: T1, hERG (Homo sapiens, UniProt Q12809, species not given); assay: in vitro
PXR = biological target: T2, PXR (Homo sapiens, UniProt O75469); assay: in vitro
T2 sequence (O75469 1-434): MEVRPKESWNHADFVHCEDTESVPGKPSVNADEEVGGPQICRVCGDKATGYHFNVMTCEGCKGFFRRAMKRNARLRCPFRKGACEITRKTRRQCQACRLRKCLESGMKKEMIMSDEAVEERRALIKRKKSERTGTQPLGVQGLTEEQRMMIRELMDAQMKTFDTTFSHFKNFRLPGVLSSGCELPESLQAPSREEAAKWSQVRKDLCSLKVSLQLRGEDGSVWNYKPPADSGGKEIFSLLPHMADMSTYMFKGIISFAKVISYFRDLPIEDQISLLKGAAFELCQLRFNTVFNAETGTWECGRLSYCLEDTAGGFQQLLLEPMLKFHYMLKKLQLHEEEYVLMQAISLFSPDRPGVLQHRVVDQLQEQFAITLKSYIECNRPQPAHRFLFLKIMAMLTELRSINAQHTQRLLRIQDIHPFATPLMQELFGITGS

in vitro [4] = details: human, hepatocytes
CYP2C9 = CYP2C9 (Homo sapiens, UniProt P11712); assay: in vitro
Chain of CYP2C9 (P11712 whole entry): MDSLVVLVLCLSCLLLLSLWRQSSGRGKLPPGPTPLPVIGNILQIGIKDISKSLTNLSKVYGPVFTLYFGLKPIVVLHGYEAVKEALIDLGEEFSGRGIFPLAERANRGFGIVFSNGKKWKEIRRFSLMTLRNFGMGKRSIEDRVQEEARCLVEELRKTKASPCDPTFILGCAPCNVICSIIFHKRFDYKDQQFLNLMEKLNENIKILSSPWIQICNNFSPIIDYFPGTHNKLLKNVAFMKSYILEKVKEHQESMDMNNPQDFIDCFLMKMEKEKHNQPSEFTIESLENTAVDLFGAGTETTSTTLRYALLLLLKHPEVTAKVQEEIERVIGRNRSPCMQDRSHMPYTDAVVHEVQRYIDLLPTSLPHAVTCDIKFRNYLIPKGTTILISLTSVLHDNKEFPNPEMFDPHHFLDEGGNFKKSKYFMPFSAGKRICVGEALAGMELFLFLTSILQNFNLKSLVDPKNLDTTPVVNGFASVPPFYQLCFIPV

CYP1A2 = biological target: T3, CYP1A2 (Homo sapiens, UniProt P05177); assay: in vitro
T3 sequence (P05177 1-516): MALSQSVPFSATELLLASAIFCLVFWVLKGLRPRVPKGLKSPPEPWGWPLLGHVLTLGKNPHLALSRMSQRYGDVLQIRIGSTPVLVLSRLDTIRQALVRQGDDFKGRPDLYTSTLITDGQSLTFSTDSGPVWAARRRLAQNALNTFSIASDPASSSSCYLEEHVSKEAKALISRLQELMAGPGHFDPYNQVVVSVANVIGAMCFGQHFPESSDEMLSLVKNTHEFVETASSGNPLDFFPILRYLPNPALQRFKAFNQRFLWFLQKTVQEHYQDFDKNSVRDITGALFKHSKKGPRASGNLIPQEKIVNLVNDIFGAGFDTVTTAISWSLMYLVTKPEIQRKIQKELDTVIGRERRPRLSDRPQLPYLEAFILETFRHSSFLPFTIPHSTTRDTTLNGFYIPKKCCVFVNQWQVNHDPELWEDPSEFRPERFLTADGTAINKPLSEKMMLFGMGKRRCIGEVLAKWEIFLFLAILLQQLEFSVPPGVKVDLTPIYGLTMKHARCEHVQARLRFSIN

hERG [5] = biological target: T1, hERG; assay: in vitro; remark: listed apart in the source
in vitro [6] = details: dog, plasma
in vitro [7] = details: rat, hepatocytes
human primary T cells = assay: cells; details: T-cell, read-out: IL-2 increase EC50 (nM)
in vitro [8] = assay: in vitro; parameters: species or system HepG2; details: mouse, ct26 cells
in vitro [9] = details: mouse, plasma
physchem = details: aqueous buffer, pH 7.4, aqueous buffer
CYP2C19 = CYP2C19 (Homo sapiens, UniProt P33261); assay: in vitro
Chain of CYP2C19 (P33261 whole entry): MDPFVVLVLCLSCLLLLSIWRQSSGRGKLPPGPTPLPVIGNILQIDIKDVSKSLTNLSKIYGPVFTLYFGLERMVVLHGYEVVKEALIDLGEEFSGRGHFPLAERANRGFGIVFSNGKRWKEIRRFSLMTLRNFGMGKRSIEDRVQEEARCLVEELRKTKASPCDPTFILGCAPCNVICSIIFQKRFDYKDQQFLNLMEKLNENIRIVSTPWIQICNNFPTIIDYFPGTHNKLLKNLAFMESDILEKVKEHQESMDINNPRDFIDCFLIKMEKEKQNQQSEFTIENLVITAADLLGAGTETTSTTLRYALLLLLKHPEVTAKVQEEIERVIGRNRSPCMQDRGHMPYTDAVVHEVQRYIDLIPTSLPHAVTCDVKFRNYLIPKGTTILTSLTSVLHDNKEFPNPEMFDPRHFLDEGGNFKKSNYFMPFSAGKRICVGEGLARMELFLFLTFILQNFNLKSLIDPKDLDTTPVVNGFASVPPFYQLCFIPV

in vitro [10] = details: human, plasma
in vitro [11] = assay: in vitro; parameters: species or system CT26; details: human, hepg2 cells
in vitro [12] = details: rat, plasma
in vitro [13] = details: mouse, hepatocytes
CYP2D6 = CYP2D6 (Homo sapiens, UniProt P10635); assay: in vitro
Chain of CYP2D6 (P10635 whole entry): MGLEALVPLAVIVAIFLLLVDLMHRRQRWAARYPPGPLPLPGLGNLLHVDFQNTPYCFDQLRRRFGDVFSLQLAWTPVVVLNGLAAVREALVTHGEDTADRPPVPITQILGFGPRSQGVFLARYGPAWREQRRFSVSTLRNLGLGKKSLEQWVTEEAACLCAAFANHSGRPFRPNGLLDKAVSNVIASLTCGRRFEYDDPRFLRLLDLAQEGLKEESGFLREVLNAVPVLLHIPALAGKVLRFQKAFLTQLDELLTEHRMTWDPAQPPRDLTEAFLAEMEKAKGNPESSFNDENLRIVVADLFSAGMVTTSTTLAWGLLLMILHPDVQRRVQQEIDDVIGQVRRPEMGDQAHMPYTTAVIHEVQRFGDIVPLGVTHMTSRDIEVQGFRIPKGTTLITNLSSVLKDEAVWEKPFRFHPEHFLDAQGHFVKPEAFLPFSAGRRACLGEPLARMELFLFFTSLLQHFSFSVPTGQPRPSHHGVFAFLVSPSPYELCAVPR

T1 sequence (Q12809 whole entry): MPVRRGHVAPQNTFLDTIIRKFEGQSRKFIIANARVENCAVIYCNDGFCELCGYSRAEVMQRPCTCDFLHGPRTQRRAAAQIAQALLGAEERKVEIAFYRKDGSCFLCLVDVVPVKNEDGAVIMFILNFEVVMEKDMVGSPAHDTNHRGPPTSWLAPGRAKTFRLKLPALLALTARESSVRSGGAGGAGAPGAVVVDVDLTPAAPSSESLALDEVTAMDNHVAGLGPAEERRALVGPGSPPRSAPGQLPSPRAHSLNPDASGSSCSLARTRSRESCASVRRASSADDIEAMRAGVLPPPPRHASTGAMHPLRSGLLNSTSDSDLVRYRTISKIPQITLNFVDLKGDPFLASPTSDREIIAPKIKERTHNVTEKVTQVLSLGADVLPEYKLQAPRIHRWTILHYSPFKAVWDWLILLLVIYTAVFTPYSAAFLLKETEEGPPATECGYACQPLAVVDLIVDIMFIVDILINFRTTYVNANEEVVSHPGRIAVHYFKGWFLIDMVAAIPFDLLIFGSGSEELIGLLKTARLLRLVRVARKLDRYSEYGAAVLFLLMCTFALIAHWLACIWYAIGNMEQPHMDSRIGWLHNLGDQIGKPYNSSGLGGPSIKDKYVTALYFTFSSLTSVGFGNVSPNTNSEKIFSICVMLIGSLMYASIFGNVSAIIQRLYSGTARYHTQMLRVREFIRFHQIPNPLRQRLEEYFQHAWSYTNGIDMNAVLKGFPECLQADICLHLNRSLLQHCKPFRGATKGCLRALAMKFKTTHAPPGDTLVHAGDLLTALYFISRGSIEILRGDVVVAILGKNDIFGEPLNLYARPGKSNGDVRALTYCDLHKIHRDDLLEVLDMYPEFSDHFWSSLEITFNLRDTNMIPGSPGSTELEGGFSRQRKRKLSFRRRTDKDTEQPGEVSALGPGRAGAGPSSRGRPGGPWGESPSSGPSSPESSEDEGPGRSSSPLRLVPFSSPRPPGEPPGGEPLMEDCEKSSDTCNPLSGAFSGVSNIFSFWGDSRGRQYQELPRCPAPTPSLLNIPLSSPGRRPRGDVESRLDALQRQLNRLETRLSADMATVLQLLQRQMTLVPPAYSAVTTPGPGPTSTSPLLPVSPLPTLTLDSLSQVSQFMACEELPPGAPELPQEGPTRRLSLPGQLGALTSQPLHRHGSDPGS
Chain of HPK1 (Q92918 whole entry): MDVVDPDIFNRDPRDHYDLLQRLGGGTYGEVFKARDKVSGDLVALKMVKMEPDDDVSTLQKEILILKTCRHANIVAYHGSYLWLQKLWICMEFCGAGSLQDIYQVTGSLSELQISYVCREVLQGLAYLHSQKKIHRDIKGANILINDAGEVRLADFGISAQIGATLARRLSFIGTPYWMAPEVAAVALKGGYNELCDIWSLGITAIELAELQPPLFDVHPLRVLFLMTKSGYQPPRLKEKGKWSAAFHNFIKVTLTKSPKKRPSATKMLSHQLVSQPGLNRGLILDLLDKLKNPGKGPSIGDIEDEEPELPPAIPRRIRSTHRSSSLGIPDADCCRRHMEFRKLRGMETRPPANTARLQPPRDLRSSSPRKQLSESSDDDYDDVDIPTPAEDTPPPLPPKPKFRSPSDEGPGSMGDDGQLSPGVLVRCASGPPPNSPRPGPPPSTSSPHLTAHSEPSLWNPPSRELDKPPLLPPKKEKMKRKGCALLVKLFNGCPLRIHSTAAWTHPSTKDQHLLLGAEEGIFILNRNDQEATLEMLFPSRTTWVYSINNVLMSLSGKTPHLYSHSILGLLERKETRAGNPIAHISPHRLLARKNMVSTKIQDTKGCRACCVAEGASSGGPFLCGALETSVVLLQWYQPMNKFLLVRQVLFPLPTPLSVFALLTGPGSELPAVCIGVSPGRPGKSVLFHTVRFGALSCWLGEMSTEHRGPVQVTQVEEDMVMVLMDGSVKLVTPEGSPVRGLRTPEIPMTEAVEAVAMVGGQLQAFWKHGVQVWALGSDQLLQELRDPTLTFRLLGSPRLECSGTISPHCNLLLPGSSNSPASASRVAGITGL

IC50 (HPK1): 9.3 nM
Compound: COc1cccn2c(-c3cc4c(c5c3CCNC5=O)Nc3ccc(N5CCOCC5)cc3C4(C)C)cnc12 [compound 3, Cmpd. 3]

IC50 (HPK1): 8.9 nM
Compound: COc1cccn2c(-c3cc4c(c5c3CNC5=O)Nc3ccc(N5CCOCC5)cc3C4(C)C)cnc12 [compound 4, Cmpd. 4]

half-life (in vitro [1]): 205 min
efflux ratio (in vitro [2]): 2.72
activity at 1 µM (PXR): 2%
half-life (in vitro [4]): 2260 min
inhibition at 10 µM (CYP2C9): 24.5%
inhibition at 10 µM (CYP1A2): 9%
fraction unbound (in vitro [6]): 0.0112
half-life (in vitro [7]): 236 min
EC50 (human primary T cells): 9.5 nM
fraction unbound (in vitro [9]): 0.023
solubility (physchem): 56.3 µM (≈ 28.1 µg/mL)
inhibition at 10 µM (CYP2C19): 53.6%
fraction unbound (in vitro [10]): 0.046
fraction unbound (in vitro [12]): 0.0386
half-life (in vitro [13]): 161 min
inhibition at 10 µM (CYP2D6): 20.7%
Compound: CO[C@H]1CCCn2c(-c3cc4c(c5c3CNC5=O)Nc3ccc(N5CCOCC5)cc3C4(C)C)cnc21 [compound 6, Cmpd. 6]
IC50 (hERG [3]): 5.16 µM
inhibition at 10 µM (hERG [5]): 74.5%
CC50 (in vitro [8]): 7.8 µM
CC50 (in vitro [11]): 3.29 µM
